Data published in patent publication US8076487B2, “Pyridone derivative and herbicide” (Kumiai Chemical Industry Co., Ltd., priority 2006, dated 2011).

Tests used:
Format in all cases: in vivo
[1] = test system: green foxtail (Setaria viridis (L.) P. Beauv.); assay: Test Example 3: herbicidal effect by application to upland field (foliage treatment); details: foliage treatment, 1,000 g active ingredient per 1 hectare, 14th day after application, greenhouse
In short: (§1)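 Greenhouse-grown plants, two weeks old in field soil, were treated by spraying their foliage with a water dilution of wettable powder. Rate: 1,000 g active ingredient in a 1,000 L/ha equivalent volume. Assessment followed at 14 days.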

[2] = test system: slender amaranth (Amaranthus viridis L.); assay: as above; details: foliage treatment, 1,000 g active ingredient per 1 hectare, 14th day after application, greenhouse
In short: as §1

[3] = test system: barnyardgrass (Echinochloa crus-galli (L.) P. Beauv. var. crus-galli); assay: as above; details: foliage treatment, 1,000 g active ingredient per 1 hectare, 14th day after application, greenhouse
In short: as §1

[4] = test system: velvetleaf (Abutilon theophrasti medicus); assay: as above; details: foliage treatment, 1,000 g active ingredient per 1 hectare, 14th day after application, greenhouse
In short: as §1

[5] = test system: Japanese bulrush (Scirpus juncoides Roxb.); assay: Test Example 1: herbicidal effect by soil application to paddy field; details: paddy field soil application; active ingredient 1,000 g per 1 hectare; wettable powder added dropwise to water surface the day after sowing; examined on the 21st day after application
In short: (§2)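 Plants were sown in flooded (3 cm) paddy soil and evaluated for herbicidal effect 21 days after soil application in a greenhouse.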

[6] = test system: early watergrass (Echinochloa oryzicola Vasing); assay: as above; details: paddy field soil application; active ingredient 1,000 g per 1 hectare; wettable powder added dropwise to water surface the day after sowing; examined on the 21st day after application
In short: as §2

[7] = test system: heartshape false pickerelweed (Monochoria vaginalis (Burm.f.) C.Presl); assay: as above; details: paddy field soil application; active ingredient 1,000 g per 1 hectare; wettable powder added dropwise to water surface the day after sowing; examined on the 21st day after application
In short: as §2

[8] = test system: green foxtail (Setaria viridis (L.) P. Beauv.); assay: Test Example 2: herbicidal effect by soil application to upland field; details: soil surface spray, upland field soil, 1,000 g active ingredient per hectare, 21st day after application
In short: (§3)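 Soil surface treatment after sowing: wettable powder in water, 1,000 g a.i./ha, spray volume 1,000 L/ha. Greenhouse. Scored on a standard herbicidal scale at day 21.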

[9] = test system: slender amaranth (Amaranthus viridis L.); assay: as above; details: soil surface spray, upland field soil, 1,000 g active ingredient per hectare, 21st day after application
In short: as §3

[10] = test system: barnyardgrass (Echinochloa crus-galli (L.) P. Beauv. var. crus-galli); assay: as above; details: soil surface spray, upland field soil, 1,000 g active ingredient per hectare, 21st day after application
In short: as §3

[11] = test system: velvetleaf (Abutilon theophrasti medicus); assay: as above; details: soil surface spray, upland field soil, 1,000 g active ingredient per hectare, 21st day after application
In short: as §3

Row | SMILES | herbicidal effect, Green Foxtail [1] | herbicidal effect, Slender Amaranth [2] | herbicidal effect, Barnyardgrass [3] | herbicidal effect, Velvetleaf [4] | herbicidal effect, Scirpus juncoides Roxb. [5] | herbicidal effect, Echinochloa oryzicola Vasing [6] | herbicidal effect, Monochoria vaginalis (Burm. f.) C. Presl [7] | herbicidal effect (index), Green Foxtail [8] | herbicidal effect (index), Slender Amaranth [9] | herbicidal effect (index), Barnyardgrass [10] | herbicidal effect (index), Velvetleaf [11]
1 | O=C1CCCC(O)=C1C(=O)c1ccc(C(F)F)n(-c2ccccc2)c1=O [I-223] | 5 (90% or more of herbicidal effect and crop phytotoxicity) | 5 (90% or more of herbicidal effect and crop phytotoxicity) | 5 (90% or more of herbicidal effect and crop phytotoxicity) | 5 (90% or more of herbicidal effect and crop phytotoxicity) | 5 (90% or more of herbicidal effect and crop phytotoxicity) | 5 (90% or more of herbicidal effect and crop phytotoxicity) | 5 (90% or more of herbicidal effect and crop phytotoxicity) | 5 (90% or more of herbicidal effect and crop phytotoxicity) | 5 (90% or more of herbicidal effect and crop phytotoxicity) | 5 (90% or more of herbicidal effect and crop phytotoxicity) | 5 (90% or more of herbicidal effect and crop phytotoxicity)
2 | O=C1CCCC(O)=C1C(=O)c1cc(Br)c(C(F)F)n(-c2ccccc2)c1=O [I-224] | 5 (90% or more of herbicidal effect and crop phytotoxicity) | 5 (90% or more of herbicidal effect and crop phytotoxicity) | 5 (90% or more of herbicidal effect and crop phytotoxicity) | 5 (90% or more of herbicidal effect and crop phytotoxicity) | 5 (90% or more of herbicidal effect and crop phytotoxicity) | 5 (90% or more of herbicidal effect and crop phytotoxicity) | 5 (90% or more of herbicidal effect and crop phytotoxicity) | 5 (90% or more of herbicidal effect and crop phytotoxicity) | 5 (90% or more of herbicidal effect and crop phytotoxicity) | 5 (90% or more of herbicidal effect and crop phytotoxicity) | 5 (90% or more of herbicidal effect and crop phytotoxicity)
3 | Cn1c(C(F)(F)C(F)(F)F)ccc(C(=O)C2=C(O)CCCC2=O)c1=O [I-227] | 5 (90% or more of herbicidal effect and crop phytotoxicity) | 5 (90% or more of herbicidal effect and crop phytotoxicity) | 3 (50 to less than 70% of herbicidal effect and crop phytotoxicity) | 5 (90% or more of herbicidal effect and crop phytotoxicity) | 5 (90% or more of herbicidal effect and crop phytotoxicity) | 5 (90% or more of herbicidal effect and crop phytotoxicity) | 5 (90% or more of herbicidal effect and crop phytotoxicity) | 5 (90% or more of herbicidal effect and crop phytotoxicity) | 5 (90% or more of herbicidal effect and crop phytotoxicity) | 4 (70 to less than 90% of herbicidal effect and crop phytotoxicity) | 5 (90% or more of herbicidal effect and crop phytotoxicity)
4 | CCc1ccc(C(=O)C2=C(O)CCCC2=O)c(=O)n1-c1ccccc1 [I-230] | 4 (70 to less than 90% of herbicidal effect and crop phytotoxicity) | 5 (90% or more of herbicidal effect and crop phytotoxicity) | 5 (90% or more of herbicidal effect and crop phytotoxicity) | 5 (90% or more of herbicidal effect and crop phytotoxicity) | 5 (90% or more of herbicidal effect and crop phytotoxicity) | 5 (90% or more of herbicidal effect and crop phytotoxicity) | 5 (90% or more of herbicidal effect and crop phytotoxicity) | 5 (90% or more of herbicidal effect and crop phytotoxicity) | 5 (90% or more of herbicidal effect and crop phytotoxicity) | 4 (70 to less than 90% of herbicidal effect and crop phytotoxicity) | 5 (90% or more of herbicidal effect and crop phytotoxicity)
5 | Cc1cccc(-n2cccc(C(=O)C3=C(O)CCCC3=O)c2=O)c1 [I-238] | 4 (70 to less than 90% of herbicidal effect and crop phytotoxicity) | 5 (90% or more of herbicidal effect and crop phytotoxicity) | 5 (90% or more of herbicidal effect and crop phytotoxicity) | 5 (90% or more of herbicidal effect and crop phytotoxicity) | 5 (90% or more of herbicidal effect and crop phytotoxicity) | 5 (90% or more of herbicidal effect and crop phytotoxicity) | 5 (90% or more of herbicidal effect and crop phytotoxicity) | 4 (70 to less than 90% of herbicidal effect and crop phytotoxicity) | 5 (90% or more of herbicidal effect and crop phytotoxicity) | 5 (90% or more of herbicidal effect and crop phytotoxicity) | 5 (90% or more of herbicidal effect and crop phytotoxicity)
6 | N#Cc1ccc(C(=O)C2=C(O)CCCC2=O)c(=O)n1-c1ccccc1 [I-243] | 5 (90% or more of herbicidal effect and crop phytotoxicity) | 5 (90% or more of herbicidal effect and crop phytotoxicity) | 5 (90% or more of herbicidal effect and crop phytotoxicity) | 5 (90% or more of herbicidal effect and crop phytotoxicity) | 5 (90% or more of herbicidal effect and crop phytotoxicity) | 5 (90% or more of herbicidal effect and crop phytotoxicity) | 5 (90% or more of herbicidal effect and crop phytotoxicity) | 5 (90% or more of herbicidal effect and crop phytotoxicity) | 5 (90% or more of herbicidal effect and crop phytotoxicity) | 5 (90% or more of herbicidal effect and crop phytotoxicity) | 5 (90% or more of herbicidal effect and crop phytotoxicity)
7 | CC1CC(C)(C)C(O)=C(C(=O)c2ccc(C(F)(F)F)n(C)c2=O)C1=O (stereo not shown) [II-5] | 3 (50 to less than 70% of herbicidal effect and crop phytotoxicity) | 4 (70 to less than 90% of herbicidal effect and crop phytotoxicity) | 4 (70 to less than 90% of herbicidal effect and crop phytotoxicity) | 5 (90% or more of herbicidal effect and crop phytotoxicity) | 5 (90% or more of herbicidal effect and crop phytotoxicity) | 5 (90% or more of herbicidal effect and crop phytotoxicity) | 5 (90% or more of herbicidal effect and crop phytotoxicity) | 5 (90% or more of herbicidal effect and crop phytotoxicity) | 5 (90% or more of herbicidal effect and crop phytotoxicity) | 5 (90% or more of herbicidal effect and crop phytotoxicity) | 5 (90% or more of herbicidal effect and crop phytotoxicity)
8 | C=CCn1c(C(F)(F)F)ccc(C(=O)C2=C(OC)CCCC2=O)c1=O [II-25] | 5 (90% or more of herbicidal effect and crop phytotoxicity) | 5 (90% or more of herbicidal effect and crop phytotoxicity) | 5 (90% or more of herbicidal effect and crop phytotoxicity) | 5 (90% or more of herbicidal effect and crop phytotoxicity) | 5 (90% or more of herbicidal effect and crop phytotoxicity) | 5 (90% or more of herbicidal effect and crop phytotoxicity) | 5 (90% or more of herbicidal effect and crop phytotoxicity) | 5 (90% or more of herbicidal effect and crop phytotoxicity) | 5 (90% or more of herbicidal effect and crop phytotoxicity) | 5 (90% or more of herbicidal effect and crop phytotoxicity) | 5 (90% or more of herbicidal effect and crop phytotoxicity)
